How the values were obtained:
[1] = system: Nucleic Acid; test: Monointeraction into calf thymus DNA at pH 5; assay type: nucleic-acid assay
[2] = system: Nucleic Acid; test: Monointeraction into calf thymus DNA at pH 7.4; assay type: nucleic-acid assay

Compound `COc1ccc2[nH]c3ccc4cc[n+](CCN5CCC(C6CCN(CC[n+]7ccc8ccc9[nH]c%10ccc(OC)cc%10c9c8c7)CC6)CC5)cc4c3c2c1` has a Ka [1] of 5e+08 M⁻¹ and a Ka [2] of 2e+07 M⁻¹.

From ChEMBL document CHEMBL1124465, “Dynamics and thermodynamics of the counterion effect in a 7H-pyridocarbazole dimer (ditercalinium). Hypothesis of a nonbisintercalative binding mode to calf thymus DNA at high drug/base ratio” (J Med Chem, 1989)
